Read-outs that look alike come from different tables or passages of the source.
Columns and labels:
Format in all cases: cell-based
SK-MEL-5 = experiment: NCI 60 five-dose screen SK-MEL-5; conditions: Homo sapiens, five-dose
NCI-H23 = experiment: NCI 60 five-dose screen NCI-H23; conditions: Homo sapiens, five-dose
SW-620 = experiment: NCI 60 five-dose screen SW-620; conditions: Homo sapiens, five-dose
MOLT-4 = experiment: NCI 60 five-dose screen MOLT-4; conditions: Homo sapiens, five-dose
DU-145 = experiment: NCI 60 five-dose screen DU-145; conditions: Homo sapiens, five-dose
RPMI-8226 = experiment: NCI 60 five-dose screen RPMI-8226; conditions: Homo sapiens, five-dose
LOX IMVI = experiment: NCI 60 five-dose screen LOX IMVI; conditions: Homo sapiens, five-dose
MALME-3M = experiment: NCI 60 five-dose screen MALME-3M; conditions: Homo sapiens, MALME-3M, five-dose
[1] = test system: MV-4-11 acute myeloid leukemia cells; experiment: CellTiter-Glo 2.0 cell viability, MV-4-11; conditions: Homo sapiens
Method in brief: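 MV4-11 cells plated at 3,000 cells/well on pre-dispensed compounds and incubated 3 days at 37 °C, 5% CO2. Viability read as ATP-dependent luminescence with CellTiter-Glo 2.0 after 20 min at ambient temperature, followed by regression analysis.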

RXF 393 = experiment: NCI 60 five-dose screen RXF 393; conditions: Homo sapiens, five-dose
SK-MEL-28 = experiment: NCI 60 five-dose screen SK-MEL-28; conditions: Homo sapiens, five-dose
SK-OV-3 = experiment: NCI 60 five-dose screen SK-OV-3; conditions: Homo sapiens, five-dose
BT-549 = experiment: NCI 60 five-dose screen BT-549; conditions: Homo sapiens, five-dose
MDA-MB-468 = experiment: NCI 60 five-dose screen MDA-MB-468; conditions: Homo sapiens, five-dose
MDA-MB-231/ATCC = experiment: NCI 60 five-dose screen MDA-MB-231/ATCC; conditions: Homo sapiens, five-dose
PC-3 = experiment: NCI 60 five-dose screen PC-3; conditions: Homo sapiens, five-dose
SNB-19 = experiment: NCI 60 five-dose screen SNB-19; conditions: Homo sapiens, five-dose
UO-31 = experiment: NCI 60 five-dose screen UO-31; conditions: Homo sapiens, five-dose
K-562 = experiment: NCI 60 five-dose screen K-562; conditions: Homo sapiens, K562, five-dose
OVCAR-3 = experiment: NCI 60 five-dose screen OVCAR-3; conditions: Homo sapiens, five-dose
EKVX = experiment: NCI 60 five-dose screen EKVX; conditions: Homo sapiens, five-dose
786-0 = experiment: NCI 60 five-dose screen 786-0; conditions: Homo sapiens, five-dose
NCI-H226 = experiment: NCI 60 five-dose screen NCI-H226; conditions: Homo sapiens, five-dose
MDA-MB-435 = experiment: NCI 60 five-dose screen MDA-MB-435; conditions: Homo sapiens, five-dose
TK-10 = experiment: NCI 60 five-dose screen TK-10; conditions: Homo sapiens, five-dose
[2] = read-out: LC50 (the source's name) (converted)
[3] = read-out: LC50 (the source's name)

## FC(F)(F)c1cc2c(Cl)ncnc2n1CCC1CCOCC1 [NUCC-0226674]
SK-MEL-5
  GI50: 2.82 µM
  IC50: 4.37 µM
  IC (TGI): 9.33 µM
SK-MEL-5; [2]
  CC50: 30.2 µM
NCI-H23
  GI50: 2.57 µM
  IC50: 4.9 µM
  IC (TGI): 10 µM
NCI-H23; [2]
  CC50: 34.7 µM
SW-620
  GI50: 12 µM
  IC50: 17.4 µM
  IC (TGI): 28.2 µM
SW-620; [2]
  CC50: 67.6 µM
MOLT-4
  GI50: 2.34 µM
  IC50: 4.27 µM
  IC (TGI): 5.5 µM
MOLT-4; [3]
  CC50: ≥ 100 µM
DU-145
  GI50: 4.37 µM
  IC50: 7.24 µM
  IC (TGI): 15.1 µM
DU-145; [2]
  CC50: 39.8 µM
RPMI-8226
  GI50: 14.5 µM
  IC50: 25.7 µM
  IC (TGI): 41.7 µM
RPMI-8226; [3]
  CC50: ≥ 100 µM
LOX IMVI
  GI50: 1.62 µM
  IC50: 2.88 µM
  IC (TGI): 3.02 µM
LOX IMVI; [2]
  CC50: 5.5 µM
MALME-3M
  GI50: 15.1 µM
  IC50: 29.5 µM
  IC (TGI): 29.5 µM
MALME-3M; [2]
  CC50: 56.2 µM
[1]; MV4-11, 72 h, MV-4-11 cells, 3 days, CellTiter-Glo 2.0, read-out: IC50 (uM) [Cell Type: MV-4-11]
  IC50: 1.29 µM
[1]; MV4-11, bound stated in text, read-out: IC50 against MV-4-11 acute myeloid leukemia cells
  IC50: < 2 µM
RXF 393
  GI50: 8.71 µM
  IC50: 24 µM
  IC (TGI): 21.9 µM
RXF 393; [2]
  CC50: 51.3 µM
SK-MEL-28
  GI50: 2.63 µM
  IC50: 4.57 µM
  IC (TGI): 6.03 µM
SK-MEL-28; [2]
  CC50: 21.4 µM
SK-OV-3
  GI50: 17.4 µM
  IC50: 33.1 µM
  IC (TGI): 33.1 µM
SK-OV-3; [2]
  CC50: 64.6 µM
BT-549
  GI50: 10.2 µM
  IC50: 23.4 µM
  IC (TGI): 22.4 µM
BT-549; [2]
  CC50: 50.1 µM
MDA-MB-468
  GI50: 1.66 µM
  IC50: 3.8 µM
  IC (TGI): 3.47 µM
MDA-MB-468; [2]
  CC50: 7.24 µM
MDA-MB-231/ATCC
  GI50: 3.89 µM
  IC50: 8.13 µM
  IC (TGI): 14.1 µM
MDA-MB-231/ATCC; [2]
  CC50: 43.7 µM
PC-3
  GI50: 2.95 µM
  IC50: 4.27 µM
  IC (TGI): 11.2 µM
PC-3; [2]
  CC50: 45.7 µM
SNB-19
  GI50: 5.25 µM
  IC50: 12.3 µM
  IC (TGI): 18.2 µM
SNB-19; [2]
  CC50: 43.7 µM
UO-31
  GI50: 1.78 µM
  IC50: 3.39 µM
  IC (TGI): 3.8 µM
UO-31; [2]
  CC50: 7.94 µM
K-562
  GI50: 2.82 µM
  IC50: 3.63 µM
  IC (TGI): 8.71 µM
K-562; [3]
  CC50: ≥ 100 µM
OVCAR-3
  GI50: 12.3 µM
  IC50: 23.4 µM
  IC (TGI): 27.5 µM
OVCAR-3; [2]
  CC50: 61.7 µM
EKVX
  GI50: 12.6 µM
  IC50: 25.7 µM
  IC (TGI): 28.2 µM
EKVX; [2]
  CC50: 64.6 µM
786-0
  GI50: 16.2 µM
  IC50: 28.2 µM
  IC (TGI): 32.4 µM
786-0; [2]
  CC50: 64.6 µM
NCI-H226
  GI50: 13.8 µM
  IC50: 30.2 µM
  IC (TGI): 28.8 µM
NCI-H226; [2]
  CC50: 58.9 µM
MDA-MB-435
  GI50: 5.01 µM
  IC50: 8.13 µM
  IC (TGI): 18.2 µM
MDA-MB-435; [2]
  CC50: 49 µM
TK-10
  GI50: 17.4 µM
  IC50: 36.3 µM
  IC (TGI): 36.3 µM
TK-10; [2]
  CC50: 77.6 µM

Reference: patent US20240109903A1, “SUBSTITUTED HETEROCYCLES FOR TREATING CANCER” (Northwestern University, priority 2022, published 2024)
